{"source": "patent US20070122422A1", "about": "“Sodium-independent small neutral amino acid transporter transporting L- and D- amino acids” (Japan Science and Technology Corporation, priority 2000, published 2007)", "type_in_all_cases": "cell-based", "key": {"[1]": {"target": "T1, intracellular substrate-binding site of asc-1 of mouse (Mus musculus, UniProt P63115)", "T1 construct": "expressed in transfected cells; host or cells: Xenopus oocytes injected with cRNA", "T1 sequence (P63115 1-530)": "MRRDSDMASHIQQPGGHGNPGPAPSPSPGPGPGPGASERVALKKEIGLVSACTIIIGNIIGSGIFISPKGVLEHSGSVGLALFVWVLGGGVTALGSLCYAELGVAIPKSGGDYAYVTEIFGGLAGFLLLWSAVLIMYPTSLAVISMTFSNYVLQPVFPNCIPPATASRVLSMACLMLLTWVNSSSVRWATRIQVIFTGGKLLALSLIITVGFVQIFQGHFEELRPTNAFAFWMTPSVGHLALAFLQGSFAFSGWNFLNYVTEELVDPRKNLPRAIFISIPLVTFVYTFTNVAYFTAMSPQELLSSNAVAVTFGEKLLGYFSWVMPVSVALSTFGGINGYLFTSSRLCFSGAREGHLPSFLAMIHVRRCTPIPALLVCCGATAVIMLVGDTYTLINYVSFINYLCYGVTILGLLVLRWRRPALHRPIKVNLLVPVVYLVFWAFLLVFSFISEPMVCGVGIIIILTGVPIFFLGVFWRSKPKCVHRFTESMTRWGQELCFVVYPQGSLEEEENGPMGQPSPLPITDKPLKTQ", "T1 sequence (P10852 1-526 partner)": "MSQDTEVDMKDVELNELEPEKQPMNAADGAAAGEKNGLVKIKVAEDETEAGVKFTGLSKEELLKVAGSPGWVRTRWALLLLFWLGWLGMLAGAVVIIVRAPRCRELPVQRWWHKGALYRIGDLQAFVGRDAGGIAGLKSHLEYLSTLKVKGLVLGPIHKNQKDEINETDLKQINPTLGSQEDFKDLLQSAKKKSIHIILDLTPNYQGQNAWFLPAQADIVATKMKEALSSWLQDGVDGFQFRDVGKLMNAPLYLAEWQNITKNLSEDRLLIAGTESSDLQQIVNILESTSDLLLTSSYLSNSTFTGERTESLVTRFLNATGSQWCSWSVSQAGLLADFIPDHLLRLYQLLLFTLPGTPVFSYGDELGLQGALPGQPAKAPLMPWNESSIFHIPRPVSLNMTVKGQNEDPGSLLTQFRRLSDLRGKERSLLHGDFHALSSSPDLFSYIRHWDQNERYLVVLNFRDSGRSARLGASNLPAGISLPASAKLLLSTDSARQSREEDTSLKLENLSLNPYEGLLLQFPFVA", "assay": "Release of injected 14C-amino acid from oocytes co-expressing asc-1 and 4F2hc on extracellular alanine", "conditions": "alanine 100 μM added to Na+-free uptake solution", "description": "In oocytes into which cRNA of asc-1 gene and cRNA of 4F2hc gene of mouse were injected together, release of preloaded ^14C-amino acid mediated by asc-1 was checked whereby the substrate selectivity of intracellular substrate-binding site of asc-1 was checked.\n(§1) ^14C-Amino acid (˜3nCi) of 100 μM in an amount of 100 nl was injected into the oocytes into which both asc-1 gene cRNA and 4F2hc gene cRNA of mouse were injected together, washed with an ice-cooled Na^+-free uptake solution containing no alanine and transferred to a Na^+-free uptake solution to which alanine (100 μM) was added or not added at room temperature (18° C.-22° C.) and the amount of ^14C-amino acid released outside the cells was measured.\nBlack bars in FIG. 21 show the case where alanine was added to a Na^+-free uptake solution while bars with oblique lines show the case where alanine was not added to a Na^+-free uptake solution."}, "[2]": {"target": "T2, asc-1 of mouse (co-expressed with 4F2hc of mouse) (Mus musculus, UniProt P63115)", "T2 construct": "expressed in transfected cells; host or cells: Xenopus oocytes injected with cRNA", "T2 sequence (P63115 1-530)": "T1 sequence (P63115 1-530)", "T2 sequence (P10852 1-526 partner)": "T1 sequence (P10852 1-526 partner)", "assay": "Release of preloaded 14C-alanine from oocytes co-expressing asc-1 and 4F2hc on extracellular addition of compound", "conditions": "for increase in the release of preloaded 14C-alanine: 100 μM compound added to Na+-free uptake solution, room temperature", "description": "as §1, with “Release of a preloaded ^14C-alanine mediated by asc-1 was checked in the oocytes into which both asc-1 gene cRNA and 4F2hc gene cRNA of mouse were injected together. ^14C-Alanine (−3nCi)” for “^14C-Amino acid (˜3nCi)”, “^14C-alanine” for “^14C-amino acid”\nIn oocytes into which cRNA of asc-1 gene and cRNA of 4F2hc gene of mouse were injected together, release of preloaded ^14C-alanine mediated by asc-1 was investigated whereupon it was checked whether the compound which inhibited the incorporation of ^14C-alanine mediated by asc-1 was a substrate of asc-1.\nas §1, with “^14C-Alanine (−3nCi) of” for “^14C-Amino acid (˜3nCi) of”, “which amino acid or amino acid analog” for “which alanine”, “of ^14C-alanine” for “of ^14C-amino acid”\nBlack bars in FIG. 18 are the case where there were used oocytes into which cRNA of mouse asc-1 gene and cRNA of mouse 4F2hc gene were injected while white bars are the case where there were used oocytes into which water was injected instead of cRNA as a control."}, "[3]": {"target": "T3, human asc-1 (co-expressed with human 4F2hc) (Homo sapiens, UniProt Q9NS82)", "T3 construct": "expressed in transfected cells", "T3 sequence (Q9NS82 1-523)": "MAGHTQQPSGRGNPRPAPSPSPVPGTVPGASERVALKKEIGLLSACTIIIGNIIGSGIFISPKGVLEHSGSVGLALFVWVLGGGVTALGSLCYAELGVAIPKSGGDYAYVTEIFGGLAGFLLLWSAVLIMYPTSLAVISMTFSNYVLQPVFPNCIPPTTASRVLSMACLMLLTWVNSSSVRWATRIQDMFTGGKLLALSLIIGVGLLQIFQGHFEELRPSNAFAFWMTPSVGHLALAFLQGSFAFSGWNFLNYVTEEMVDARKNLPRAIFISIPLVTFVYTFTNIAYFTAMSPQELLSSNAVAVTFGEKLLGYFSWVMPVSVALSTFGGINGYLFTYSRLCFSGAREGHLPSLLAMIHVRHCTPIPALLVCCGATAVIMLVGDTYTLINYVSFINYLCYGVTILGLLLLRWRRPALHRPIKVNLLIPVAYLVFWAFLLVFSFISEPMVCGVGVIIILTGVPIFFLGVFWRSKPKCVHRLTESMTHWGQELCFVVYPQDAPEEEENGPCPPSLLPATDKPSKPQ", "assay": "Incorporation of 14C-alanine by oocytes co-expressing human asc-1 and human 4F2hc", "conditions": "oocytes where both human asc-1 and 4F2hc were expressed together", "method": "Comparison was made between incorporation of ^14C-alanine in the case where human asc-1 gene cRNA was solely expressed in oocytes with that in the case where both human asc-1 gene cRNA and human 4F2hc gene cRNA were expressed in oocytes. Expression was carried out by injection of 12.5 ng of human asc-1 gene cRNA, 12.5 ng of human 4F2hc gene cRNA or 12.5 ng of human asc-1 gene cRNA/12.5 ng of human 4F2hc gene cRNA into oocytes and incubation was conducted for three days. With regard to the oocytes into which human asc-1 gene cRNA, 4F2hc gene cRNA or human asc-1 gene cRNA/4F2hc gene cRNA was injected, an experiment for incorporation of substrate was carried out according to Example 2(1) using alanine as a substrate."}}, "note": "Entries after “also recorded” stand apart in the source; their conditions may differ.", "data": [{"smiles": "C[C@H](N)C(=O)O", "note": "[L-Alanine]", "values": [{"measurement": "release of injected 14C-labeled amino acid by extracellular alanine", "setting": "[1]", "value": "increase in release"}, {"measurement": "increase in the release of preloaded 14C-alanine", "setting": "[2]", "value": "significantly increased; also recorded: high increase"}, {"measurement": "release of 14C-alanine without alanine outside the cells", "setting": "[2]; alanine not added to Na+-free uptake solution", "value": "significant release"}, {"measurement": "incorporation of alanine", "setting": "[3]", "value": "big incorporation"}]}, {"smiles": "N[C@@H](CO)C(=O)O", "note": "[L-Serine]", "values": [{"measurement": "release of injected 14C-labeled amino acid by extracellular alanine", "setting": "[1]", "value": "increase in release"}, {"measurement": "increase in the release of preloaded 14C-alanine", "setting": "[2]", "value": "high increase"}]}]}
